ChEMBL document CHEMBL1201862, “PubChem BioAssay data set” (2004)
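Compound exposure: 48 hours, 5 concentrations, 96-well plates. The concentration for 50% growth inhibition is given as GI50.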 Active and inactive are the calls of the source. Cut-off read from the data, not from the text of the source: active = GI50 up to about 1.1 µM and inactive = higher.

Legend:
Assay in all cases: inhibition of tumour cell growth, NCI panel, 48 h
PC-3 = test system: PC-3
RPMI-8226 = test system: RPMI-8226
A498 = test system: A498
HCT-116 = test system: HCT-116
CCRF-CEM = test system: CCRF-CEM
Malme-3M = test system: Malme-3M
SK-MEL-28 = test system: SK-MEL-28
SF-539 = test system: SF-539
SK-OV-3 = test system: SK-OV-3
T47D = test system: T47D
HL-60 = test system: HL-60
MCF7 = test system: MCF7
NCI/ADR-RES = test system: NCI/ADR-RES
COLO 205 = test system: COLO 205
A549 = test system: A549
NCI-H460 = test system: NCI-H460
SNB-75 = test system: SNB-75
OVCAR-5 = test system: OVCAR-5
LOX IMVI = test system: LOX IMVI
MOLT-4 = test system: MOLT-4
IGROV-1 = test system: IGROV-1
TK-10 = test system: TK-10
NCI-H226 = test system: NCI-H226
KM12 = test system: KM12
MDA-MB-435 = test system: MDA-MB-435
OVCAR-3 = test system: OVCAR-3
UACC-257 = test system: UACC-257
ACHN = test system: ACHN
CAKI-1 = test system: CAKI-1
SN12C = test system: SN12C
UO-31 = test system: UO-31
BT-549 = test system: BT-549
HOP-92 = test system: HOP-92
UACC-62 = test system: UACC-62
NCI-H522 = test system: NCI-H522
SK-MEL-2 = test system: SK-MEL-2
786-0 = test system: 786-0
Hs-578T = test system: Hs-578T
SW-620 = test system: SW-620
SK-MEL-5 = test system: SK-MEL-5
M14 = test system: M14
HCC 2998 = test system: HCC 2998
HT-29 = test system: HT-29
SF-295 = test system: SF-295
EKVX = test system: EKVX
SNB-19 = test system: SNB-19
MDA-N = test system: MDA-N
U-251 = test system: U-251
NCI-H23 = test system: NCI-H23
HCT-15 = test system: HCT-15
OVCAR-8 = test system: OVCAR-8
MDA-MB-231 = test system: MDA-MB-231
OVCAR-4 = test system: OVCAR-4
SF-268 = test system: SF-268
DU-145 = test system: DU-145
K562 = test system: K562
HOP-62 = test system: HOP-62
SR = test system: SR
RXF 393 = test system: RXF 393

## COC(C)C(O)(C(=O)OCC1=CCN2CCC(O)C12)C(C)(C)O (stereo unspecified)
PC-3
  GI50: > 100 µM (inactive)
RPMI-8226
  GI50: > 100 µM (inactive)
A498
  GI50: > 100 µM (inactive)
HCT-116
  GI50: > 100 µM (inactive)
CCRF-CEM
  GI50: > 100 µM (inactive)
Malme-3M
  GI50: > 100 µM (inactive)
SK-MEL-28
  GI50: > 100 µM (inactive)
SF-539
  GI50: > 100 µM (inactive)
SK-OV-3
  GI50: > 100 µM (inactive)
T47D
  GI50: > 100 µM (inactive)
HL-60
  GI50: > 100 µM (inactive)
MCF7
  GI50: > 100 µM (inactive)
NCI/ADR-RES
  GI50: > 100 µM (inactive)
COLO 205
  GI50: > 100 µM (inactive)
A549
  GI50: > 100 µM (inactive)
NCI-H460
  GI50: > 100 µM (inactive)
SNB-75
  GI50: > 100 µM (inactive)
OVCAR-5
  GI50: > 100 µM (inactive)
LOX IMVI
  GI50: > 100 µM (inactive)
MOLT-4
  GI50: > 100 µM (inactive)
IGROV-1
  GI50: > 100 µM (inactive)
TK-10
  GI50: > 100 µM (inactive)
NCI-H226
  GI50: > 100 µM (inactive)
KM12
  GI50: > 100 µM (inactive)
MDA-MB-435
  GI50: > 100 µM (inactive)
OVCAR-3
  GI50: > 100 µM (inactive)
UACC-257
  GI50: > 100 µM (inactive)
ACHN
  GI50: > 100 µM (inactive)
CAKI-1
  GI50: > 100 µM (inactive)
SN12C
  GI50: > 100 µM (inactive)
UO-31
  GI50: > 100 µM (inactive)
BT-549
  GI50: > 100 µM (inactive)
HOP-92
  GI50: > 100 µM (inactive)
UACC-62
  GI50: > 100 µM (inactive)
NCI-H522
  GI50: > 100 µM (inactive)
SK-MEL-2
  GI50: > 100 µM (inactive)
786-0
  GI50: > 100 µM (inactive)
Hs-578T
  GI50: > 100 µM (inactive)
SW-620
  GI50: > 100 µM (inactive)
SK-MEL-5
  GI50: > 100 µM (inactive)
M14
  GI50: > 100 µM (inactive)
HCC 2998
  GI50: > 100 µM (inactive)
HT-29
  GI50: > 100 µM (inactive)
SF-295
  GI50: > 100 µM (inactive)
EKVX
  GI50: > 100 µM (inactive)
SNB-19
  GI50: > 100 µM (inactive)
MDA-N
  GI50: > 100 µM (inactive)
U-251
  GI50: > 100 µM (inactive)
NCI-H23
  GI50: > 100 µM (inactive)
HCT-15
  GI50: > 100 µM
OVCAR-8
  GI50: > 100 µM (inactive)
MDA-MB-231
  GI50: > 100 µM (inactive)
OVCAR-4
  GI50: > 100 µM (inactive)
SF-268
  GI50: > 100 µM (inactive)
DU-145
  GI50: > 100 µM (inactive)

## Cn1c(=O)[nH]c2[nH]c3ccccc3c2c1=O
K562
  GI50: > 100 µM (inactive)
RPMI-8226
  GI50: 92 µM (inactive)
A498
  GI50: > 100 µM (inactive)
HCT-116
  GI50: > 100 µM (inactive)
CCRF-CEM
  GI50: > 100 µM (inactive)
Malme-3M
  GI50: > 100 µM (inactive)
SK-MEL-28
  GI50: > 100 µM (inactive)
SF-539
  GI50: > 100 µM (inactive)
SK-OV-3
  GI50: > 100 µM (inactive)
T47D
  GI50: > 100 µM (inactive)
HOP-62
  GI50: > 100 µM (inactive)
HL-60
  GI50: > 100 µM (inactive)
MCF7
  GI50: > 100 µM (inactive)
NCI/ADR-RES
  GI50: > 100 µM (inactive)
COLO 205
  GI50: > 100 µM (inactive)
A549
  GI50: > 100 µM (inactive)
SNB-75
  GI50: 32.1 µM (inactive)
OVCAR-5
  GI50: > 100 µM (inactive)
LOX IMVI
  GI50: > 100 µM (inactive)
MOLT-4
  GI50: > 100 µM (inactive)
IGROV-1
  GI50: > 100 µM (inactive)
TK-10
  GI50: > 100 µM (inactive)
NCI-H226
  GI50: > 100 µM (inactive)
KM12
  GI50: > 100 µM (inactive)
MDA-MB-435
  GI50: > 100 µM (inactive)
OVCAR-3
  GI50: > 100 µM (inactive)
UACC-257
  GI50: > 100 µM (inactive)
ACHN
  GI50: > 100 µM (inactive)
SR
  GI50: > 100 µM (inactive)
CAKI-1
  GI50: > 100 µM (inactive)
SN12C
  GI50: > 100 µM (inactive)
UO-31
  GI50: > 100 µM (inactive)
BT-549
  GI50: > 100 µM (inactive)
HOP-92
  GI50: > 100 µM (inactive)
UACC-62
  GI50: > 100 µM (inactive)
NCI-H522
  GI50: > 100 µM (inactive)
SK-MEL-2
  GI50: > 100 µM (inactive)
786-0
  GI50: > 100 µM (inactive)
Hs-578T
  GI50: 65.5 µM (inactive)
SW-620
  GI50: > 100 µM (inactive)
SK-MEL-5
  GI50: > 100 µM (inactive)
RXF 393
  GI50: > 100 µM (inactive)
M14
  GI50: > 100 µM (inactive)
HCC 2998
  GI50: > 100 µM (inactive)
HT-29
  GI50: > 100 µM (inactive)
SF-295
  GI50: > 100 µM (inactive)
EKVX
  GI50: > 100 µM (inactive)
SNB-19
  GI50: > 100 µM (inactive)
MDA-N
  GI50: > 100 µM (inactive)
U-251
  GI50: > 100 µM (inactive)
NCI-H23
  GI50: > 100 µM (inactive)
HCT-15
  GI50: > 100 µM
OVCAR-8
  GI50: > 100 µM (inactive)
MDA-MB-231
  GI50: > 100 µM (inactive)
SF-268
  GI50: > 100 µM (inactive)
DU-145
  GI50: > 100 µM (inactive)
